We go through five molecules from patent US8314132B2, “5-aryl-4-(5-substituted 2,4-dihydroxyphenyl)-1,2,3-thiadiazoles as inhibitors of Hsp90 chaperone and the intermediates for production thereof” (Biotechnologijos Institutas, priority 2008, dated 2012).

For experiment [1], the system named is U2OS (osteosarcoma) cells. Briefly: Growth inhibition (GI50), XTT cell viability assay, U2OS. The settings on record: Homo sapiens, 72 h, 3 days, read-out: growth inhibition constants (GI50), U2OS. The class given is cell-based. The procedure: (§1) The growth inhibition constants of the compounds were determined in two cancer cell lines: U2OS (osteosarcoma) and HeLa (cervical carcinoma). Cells were maintained in DMEM (HeLa) and a 50-50% mixture of DMEM and F-12 media (U2OS) supplemented with 10% fetal bovine serum. Stock solutions (20 mM) of the tested compounds were prepared in 100% dimethyl-sulfoxide (DMSO). Cells, cultured in 24-well plates, were subjected to a range of concentrations of the compounds ([…]) at 0.25% DMSO. After 3 days, cell viability was assayed using XTT (sodium salt of 2,3-bis[2-Methoxy-4-nitro-5-sulfophenyl]-2H-tetrazolium-5-carboxyanilide inner salt) and PMS (phenazine methosulfate) reagents (Scudiero et al. 1988. Cancer Res. 48, 4827-4833). Stock solutions of XTT (1 mg/ml) and PMS (1.53 mg/ml) were prepared in Hank's buffered saline (HBS). Culture medium in each well was replaced by 100 μl of OptiMEM media (Life technologies) containing 35 μg/ml XTT and 0.27 μg/ml PMS. Cells were returned to the incubator for 15-20 min. Quantity of viable cells in each well was evaluated spectrophotometrically measuring the absorbance of XTT formazan at 470 nm. Each experiment was run in duplicate.
(Tetrazolium assays rely on reduction of a dye to a coloured formazan, in cell work by metabolically active cells.)

Experiment [2] has as its system HeLa (cervical carcinoma) cells. Briefly: Growth inhibition (GI50), XTT cell viability assay, HeLa. The settings on record: Homo sapiens, 72 h, 3 days, read-out: GI50 constants, HeLa. The class given is cell-based. The procedure:
as §1

Turning to `COc1ccc(-c2snnc2-c2cc(Cl)c(O)cc2O)cc1` [compound 3a, 4-(5-chloro-2,4-dihydroxyphenyl)-5-(4-methoxyphenyl)-1,2,3-thiadiazole], the figures for the GI50 in experiment [1] and in experiment [2] were 8.4 ± 1.2 µM and 2.5 ± 0.1 µM, respectively.
On the same counts, the results for `CCOc1ccc(-c2snnc2-c2cc(Cl)c(O)cc2O)cc1` [compound 3b, 4-(5-chloro-2,4-dihydroxyphenyl)-5-(4-ethoxyphenyl)-1,2,3-thiadiazole] are 15.1 ± 3.4 µM and 4.2 ± 0.4 µM.
On the same counts, the results for `Cc1ccc(-c2snnc2-c2cc(Cl)c(O)cc2O)cc1` [compound 3c, 4-(5-chloro-2,4-dihydroxyphenyl)-5-(4-methylphenyl)-1,2,3-thiadiazole] are 7.1 ± 0.1 µM and 3.3 ± 0.1 µM.
On to `COc1ccc(-c2snnc2-c2cc(Cl)c(O)cc2O)cc1OC` [compound 3d, 4-(5-chloro-2,4-dihydroxyphenyl)-5-(3,4-dimethoxyphenyl)-1,2,3-thiadiazole], for which the GI50 – broadly, the concentration at which growth is held to half of that of the control – in experiment [1] came to 11.5 ± 0.1 µM; in experiment [2] it was 3.6 ± 0.3 µM.
For `CCOc1ccc(-c2snnc2-c2cc(CC)c(O)cc2O)cc1` [compound 3e, 4-(5-ethyl-2,4-dihydroxyphenyl)-5-(4-ethoxyphenyl)-1,2,3-thiadiazole], in that order: 0.65 ± 0.08 µM and 0.7 ± 0.04 µM.
